Our source for the inhibition values is ChEMBL document CHEMBL3352139, “Unambiguous Determination of the Absolute Configuration of Dimeric Stilbene Glucosides from the Rhizomes of Gnetum africanum” (J Nat Prod, 2014).

The assay addresses Amyloid-beta precursor protein (Homo sapiens) (UniProt P05067). Description: Inhibition of Amyloid beta (25 to 35) (unknown origin) polymerization assessed as reduction in beta-amyloid fibril formation at 10 uM after 6 hrs by UV-visible spectroscopy.

Amyloid-beta precursor protein (Homo sapiens), sequence (P05067 whole entry): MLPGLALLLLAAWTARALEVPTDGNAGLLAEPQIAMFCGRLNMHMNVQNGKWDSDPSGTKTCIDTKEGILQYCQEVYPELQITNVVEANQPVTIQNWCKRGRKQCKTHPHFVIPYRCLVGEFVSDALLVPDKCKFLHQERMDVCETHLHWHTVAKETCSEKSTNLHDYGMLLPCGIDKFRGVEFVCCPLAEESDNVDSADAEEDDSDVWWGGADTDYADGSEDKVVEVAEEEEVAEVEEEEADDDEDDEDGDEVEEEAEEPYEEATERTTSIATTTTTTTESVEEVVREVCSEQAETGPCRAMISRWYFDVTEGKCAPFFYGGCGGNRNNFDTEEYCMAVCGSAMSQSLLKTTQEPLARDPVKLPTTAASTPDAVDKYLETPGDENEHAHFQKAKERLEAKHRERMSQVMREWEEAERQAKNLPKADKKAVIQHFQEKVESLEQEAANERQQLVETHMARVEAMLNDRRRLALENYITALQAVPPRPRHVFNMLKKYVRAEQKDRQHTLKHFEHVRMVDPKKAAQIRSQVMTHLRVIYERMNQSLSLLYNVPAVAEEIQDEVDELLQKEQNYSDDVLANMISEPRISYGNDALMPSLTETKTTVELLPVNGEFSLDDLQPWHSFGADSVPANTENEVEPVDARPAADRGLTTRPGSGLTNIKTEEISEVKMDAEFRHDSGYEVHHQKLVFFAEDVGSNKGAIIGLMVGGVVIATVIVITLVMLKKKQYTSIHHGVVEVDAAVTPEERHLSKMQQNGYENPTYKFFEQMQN

Take `OC[C@H]1O[C@@H](Oc2ccc(/C=C/c3cc(O)c4c(c3)O[C@H](c3ccc(O)cc3)[C@H]4c3cc(O)cc(O)c3)cc2)[C@H](O)[C@@H](O)[C@@H]1O`: the inhibition was found to be 54%.

For the compound `OC[C@H]1O[C@@H](Oc2ccc(/C=C/c3cc(O)c4c(c3)O[C@H](c3ccc(O[C@@H]5O[C@H](CO)[C@@H](O)[C@H](O)[C@H]5O)cc3)[C@H]4c3cc(O)cc(O)c3)cc2)[C@H](O)[C@@H](O)[C@@H]1O`, the inhibition came out at 56%. Under `OC[C@H]1O[C@@H](Oc2ccc(/C=C/c3cc(O)c4c(c3)O[C@@H](c3ccc(O[C@@H]5O[C@H](CO)[C@@H](O)[C@H](O)[C@H]5O)cc3)[C@@H]4c3cc(O)cc(O)c3)cc2)[C@H](O)[C@@H](O)[C@@H]1O` stands 56%; under `OC[C@H]1O[C@@H](Oc2ccc([C@H]3Oc4cc(/C=C/c5ccc(O)cc5)cc(O)c4[C@@H]3c3cc(O)cc(O)c3)cc2)[C@H](O)[C@@H](O)[C@@H]1O`, 58%.

Broadly, the inhibition is the drop in the measured response relative to a control, in per cent.
